Reference: patent US20260118345A1, “METHOD OF EVALUATING INTERCELLULAR INTERACTIONS IN NEUROINFLAMMATION” (FUJIFILM Corporation, priority 2023, published 2026)

What was measured:
Assay type in all cases: cell-based, human
NF-κB [1] = experiment: NF-κB localization by immunostaining after LPS stimulation, two-dimensional three-cell-type co-culture of astrocytes, neurons and microglia; settings: R-7050 10 μmol/L with LPS 100 ng/ml
Protocol: (§1) Matrigel basement membrane matrix (Corning, 356234) diluted 120-fold with DMEM/F12 (Life technologies, 11320-033) was added to a 96-well plate at 65 μL/well and allowed to stand at 4° C. After 24 hours, the culture medium was replaced with a progenitor cell culture medium and used.
Astrocyte precursor cells (XCell Science, XCS-AP-001-1V) were seeded in a 96-well plate at a density of 5×10^4 cells/well and cultured under the conditions of 37° C. and 5% CO2. The next day, the culture medium was replaced with the differentiation-inducing culture medium and further cultured for 5 days to differentiate into astrocytes.
(§2) The neurons were produced by forcing expression of the Ngn2 gene from iPS cells (WO2014/148646A; and Zhang Y, et al., Neuron, 78:785-98, 2013), and the cells that had been frozen and stored were used. The cells that had been frozen and stored were thawed in a warm bath at 37° C., and after thawing, the cells were added to the co-culture medium and centrifuged at 600×g at room temperature for 5 minutes. After centrifugation, the supernatant was removed, the cells were suspended in 1 mL of the co-culture medium, and the number of cells was counted.
As the microglia, iPS cell-derived microglia (iCell (registered trademark) Microglia, FCDI, C1110) were used. The cells that had been frozen and stored were thawed in a warm bath at 37° C., and after thawing, the cells were added to the co-culture medium and centrifuged at 600×g at room temperature for 5 minutes. After centrifugation, the supernatant was removed, the cells were suspended in 1 mL of the co-culture medium, and the number of cells was counted.
The neurons and the microglia were mixed in a ratio of 3:1 and seeded on the astrocytes at 4×10^4 cells/well. The cells were cultured under the conditions of 37° C. and 5% CO2, and half of the culture medium was replaced three times a week.
Microglia were specifically stimulated by adding LPS (FUJIFILM Wako Pure Chemical Corporation, 124-05151) at 100 ng/mL to the two-dimensional co-culture that had been cultured for 4 weeks. The cells were fixed by treating, for 30 minutes, with a formaldehyde solution (FUJIFILM Wako Pure Chemical Corporation, 061-00416) diluted 10-fold with PBS(−) (FUJIFILM Wako Pure Chemical Corporation, 166-23555) without treatment, and at 0.5 hours, 1 hour, 3 hours, 6 hours, and 24 hours after the treatment.
In addition, in the two-dimensional co-culture that had been cultured for 19 days, LPS (FUJIFILM Wako Pure Chemical Corporation, 124-05151) was added at 100 ng/ml and R-7050 (Cayman Chemical Company, 16870), which is a TNFR1 inhibitor, was added at 10 μmol/L, and the effect of TNF-α on the intercellular interaction induced by LPS stimulation was evaluated. The cells were fixed by treating, for 30 minutes, with a formaldehyde solution (FUJIFILM Wako Pure Chemical Corporation, 061-00416) diluted 10-fold with PBS (−) (FUJIFILM Wako Pure Chemical Corporation, 166-23555) without treatment, and at 0.5 hours, 1 hour, 3 hours, 6 hours, and 24 hours after the treatment.
The fixed cells were washed with PBS (−), and blocking and permeabilization were performed by treating with a solution (1% BSA/0.2% Triton X-100) in which BSA (Sigma-Aldrich, A4161) and Triton (registered trademark) X-100 (BioVision, 2104-100) were diluted to 1% and 0.2% with PBS (−) for 30 minutes. […]

[2] = test system: two-cell-type co-culture of neurons and astrocytes; experiment: Neural activity by calcium imaging (BPM), two-dimensional two-cell-type co-culture of neurons and astrocytes; settings: 24 hours after stimulation (TNF-α 7.5 ng/mL or LPS 100 ng/mL)
Protocol: Matrigel basement membrane matrix (Corning, 356234) diluted 120-fold with DMEM/F12 (Life technologies, 11320-033) was added to a 96-well plate at 65 μL/well and allowed to stand at 4° C. After 24 hours, the culture medium was replaced with a progenitor cell culture medium and used. Astrocyte precursor cells (XCell Science, XCS-AP-001-1V) were seeded in a 96-well plate at a density of 6×10^4 cells/well, cultured under the conditions of 37° C. and 5% CO2, after culture medium was replaced with the differentiation induction culture medium, further cultured for 5 days to differentiate into astrocytes. […] After centrifugation, the supernatant was removed, the cells were suspended in 1 mL of the co-culture medium, and the number of cells was counted. […] In addition, at 24 hours after the stimulation with LPS or TNF-α, the neural activity was evaluated by calcium imaging. […] After incubating for 1 hour under conditions of 37° C. and 5% CO2, the solution was replaced with a warmed (37° C.) recording solution, and the fluorescence was measured for 10 minutes with FDSS (registered trademark)/μcell (Hamamatsu Photonics K. K., C13299). The neural activity was evaluated by quantifying the number of peaks of calcium oscillation using Wave Checker Software (Hamamatsu Photonics K. K.).

[3] = test system: three-cell-type co-culture of neurons, astrocytes, and microglia; experiment: Neural activity by calcium imaging (BPM), two-dimensional three-cell-type co-culture of neurons, astrocytes and microglia; settings: 24 hours after stimulation (TNF-α 7.5 ng/mL or LPS 100 ng/mL)
Protocol: Matrigel basement membrane matrix (Corning, 356234) diluted 120-fold with DMEM/F12 (Life technologies, 11320-033) was added to a 96-well plate at 65 μL/well and allowed to stand at 4° C. After 24 hours, the culture medium was replaced with a progenitor cell culture medium and used. Astrocyte precursor cells (XCell Science, XCS-AP-001-1V) were seeded in a 96-well plate at a density of 6×10^4 cells/well, cultured under the conditions of 37° C. and 5% CO2, after culture medium was replaced with the differentiation induction culture medium, further cultured for 5 days to differentiate into astrocytes. […] After centrifugation, the supernatant was removed, the cells were suspended in 1 mL of the co-culture medium, and the number of cells was counted. […] After centrifugation, the supernatant was removed, the cells were suspended in 1 mL of the co-culture medium, and the number of cells was counted. […] In addition, at 24 hours after the stimulation with LPS or TNF-α, the neural activity was evaluated by calcium imaging. […] After incubating for 1 hour under conditions of 37° C. and 5% CO2, the solution was replaced with a warmed (37° C.) recording solution, and the fluorescence was measured for 10 minutes with FDSS (registered trademark)/μcell (Hamamatsu Photonics K. K., C13299). […]

NF-κB [4] = experiment: NF-κB localization after TNF-α stimulation, two-dimensional two-cell-type co-culture of neurons and astrocytes; settings: TNF-α 7.5 ng/mL; 3 hours after the stimulation
Protocol: as §1
Astrocyte precursor cells (XCell Science, XCS-AP-001-1V) were seeded in a 96-well plate at a density of 6×10^4 cells/well, cultured under the conditions of 37° C. and 5% CO2, after culture medium was replaced with the differentiation induction culture medium, further cultured for 5 days to differentiate into astrocytes.
as §2, with “forcibly expressing” for “forcing expression of”, “genes” for “gene”, “from the” for “from”, “cells” for “cells (WO2014/148646A; and Zhang Y, et al., Neuron, 78:785-98, 2013),”
In the two-cell-type co-culture, the neurons were seeded on the astrocytes at 3×10^4 cells/well. […]
After 3 hours of the stimulation with TNF-α, the cells were fixed by the method described in <1> of Test Example 1, and the localization of NF-κB was evaluated by the same method as in <1> of Test Example 1.

| Compound | activation of the microglia affecting other cells (intercellular interaction) (NF-κB [1]) | nuclear signals of NF-κB, co-localization with microglia marker IBA1 (NF-κB [1]; 1, 3, and 6 hours after the LPS stimulation) | nuclear translocation of NF-κB (NF-κB [1]; 1, 3, and 6 hours after the LPS stimulation, co-culture cultured 19 days) | BPM (the number of peaks of calcium oscillation per minute) as compared with the control [2] | BPM (the number of peaks of calcium oscillation per minute) as compared with the control [3] | nuclear translocation of NF-κB in GFAP-positive cells (astrocytes) (NF-κB [4]) | nuclear translocation of NF-κB in Neun-positive cells (neurons) (NF-κB [4]) |
| --- | --- | --- | --- | --- | --- | --- | --- |
| FC(F)(F)c1nnc2c(Sc3ccccc3)nc3ccc(Cl)cc3n12 [R-7050] | suppressed | all co-localized with IBA1 | only some cells |  |  |  |  |
| TNF-α |  |  |  | increase | increase | occurred | not confirmed |
